This assay concerns the target T1, cPLA2 (Homo sapiens, UniProt P47712).
T1 sequence (P47712 1-749): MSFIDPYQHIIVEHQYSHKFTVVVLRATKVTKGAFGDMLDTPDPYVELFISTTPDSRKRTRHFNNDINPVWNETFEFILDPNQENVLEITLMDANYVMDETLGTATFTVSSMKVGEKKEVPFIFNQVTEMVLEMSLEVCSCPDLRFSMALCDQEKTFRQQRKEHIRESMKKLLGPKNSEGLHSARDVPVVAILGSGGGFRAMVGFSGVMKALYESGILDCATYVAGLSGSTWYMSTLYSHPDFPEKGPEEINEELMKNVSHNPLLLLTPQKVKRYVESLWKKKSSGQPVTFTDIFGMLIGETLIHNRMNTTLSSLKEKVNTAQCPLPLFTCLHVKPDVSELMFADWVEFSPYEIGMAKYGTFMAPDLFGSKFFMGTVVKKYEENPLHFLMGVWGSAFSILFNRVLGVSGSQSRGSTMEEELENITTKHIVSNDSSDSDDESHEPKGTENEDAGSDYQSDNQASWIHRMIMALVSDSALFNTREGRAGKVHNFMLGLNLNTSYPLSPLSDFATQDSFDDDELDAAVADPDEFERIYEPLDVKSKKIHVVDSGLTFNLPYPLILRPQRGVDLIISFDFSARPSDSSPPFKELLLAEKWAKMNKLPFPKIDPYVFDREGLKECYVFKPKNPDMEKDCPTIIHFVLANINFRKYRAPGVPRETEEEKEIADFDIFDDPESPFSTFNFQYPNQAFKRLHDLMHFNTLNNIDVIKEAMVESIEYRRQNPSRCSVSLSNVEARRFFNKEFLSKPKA
Briefly: Coumarine Assay. It is filed as biochemical. The note with it: 60 μM 7-hydroxycoumarinyl 6-heptenoate substrate, 4 μg cPLA2, pH 7.5, fluorescence ex 360 nm / em 460 nm; read-out: Coumarin IC50.

Usually IC50 stands for the concentration needed to halve the response being measured.

Description: Inhibitors were mixed with 200 μL assay buffer (80 mM Heped, pH 7.5, 1 mM EDTA) containing 60 μM 7-hydroxycoumarinyl 6-heptenoate. The reaction was initiated by adding 4 μg cPLA2 in 50 μL assay buffer. Hydrolysis of the 7-hydroxycounarimyl 6-heptenoate ester was monitored in a fluorometer by exciting at 360 nm and monitoring emission at 460 nm. Enzyme activity is proportional to the increase in emission at 460 nm per minute. In the presence of a cPLA2 inhibitor, the rate of increase is less.

Turning to “2-(2{[(2-Aminobenzyl)sulfonyl]amino}ethyl)-4-(2-[1-benzhydryl-5-chloro-1H-indol-3-yl]ethoxy}benzoic acid [Example 16]”, the concentration for half-maximal inhibition (IC50) worked out at 980 nM.
In the case of “4-{2-[1-Benzhydryl-5-chloro-2-(2-{[(2-cyanobenzyl)sulfonyl]amino}ethyl)-1H-indol-3-yl]ethoxy)benzoic acid [Example 35]”, the half-maximal inhibitory concentration (IC50) stood at 330 nM.
The figure for `O=C(O)c1ccc(OCCc2c(CCNS(=O)(=O)Cc3ccccc3)n(C(c3ccccc3)c3ccccc3)c3ccc(Cl)cc23)cc1` [Example 1, 4-[2-(1-Benzhydryl-2-{2[(benzylsulfonyl)amino]ethyl}-5-chloro-1H-indol-3-yl)ethoxyl]benzoic acid] is 420 nM; for `CC(C)S(=O)(=O)NCCc1c(CCOc2ccc(C(=O)O)cc2)c2cc(Cl)ccc2n1C(c1ccccc1)c1ccccc1` [Example 2, 4-[2-(1-Benzhydryl-5-chloro-2-{2-[(isopropylsulfonyl)amino]ethyl}-1H-indol-3-yl)ethoxy]benzoic acid] it is 2000 nM.
Regarding `CCCCS(=O)(=O)NCCc1c(CCOc2ccc(C(=O)O)cc2)c2cc(Cl)ccc2n1C(c1ccccc1)c1ccccc1` [Example 3, 4-[2-(1-Benzhydryl-2-{2-[(butylsulfonyl)amino]ethyl}-5-chloro-1H-indol-3-yl)ethoxy]benzoic acid], the IC50 stood at 2500 nM.
Turning to `Cn1cnc(S(=O)(=O)NCCc2c(CCOc3ccc(C(=O)O)cc3)c3cc(Cl)ccc3n2C(c2ccccc2)c2ccccc2)c1` [Example 4, 4-{2-[1-Benzhydryl-5-chloro-2-(2{[(1-methyl-1H-imidazol-4-yl)sulfonyl]amino}ethyl)-1H-indol-3-yl]ethoxy}benzoic acid], the IC50 stood at 56000 nM.
For `O=C(O)c1ccc(OCCc2c(CCNS(=O)(=O)c3cnc(Cl)c(Br)c3)n(C(c3ccccc3)c3ccccc3)c3ccc(Cl)cc23)cc1` [Example 5, 4-{2-[1-Benzhydryl-2-(2-{[(5-bromo6-chloro-3-pyridinyl)sulfonyl]amino}ethyl)-5-chloro-1H-indol-3-yl]ethoxy}benzoic acid], the IC50 is 3000 nM.
Turning to `CC1(C)C2CC[C@]1(CS(=O)(=O)NCCc1c(CCOc3ccc(C(=O)O)cc3)c3cc(Cl)ccc3n1C(c1ccccc1)c1ccccc1)C(=O)C2` [Example 6, 4-[2-(1-Benzhydryl-5-chloro-2-{2-[({[(1R)-7,7-dimethyl-2-oxobicyclo[2.2.1]hept-1-yl]methyl}sulfonyl)amino]ethyl}-1H-indol-3-yl)ethoxy]benzoic acid], the IC50 worked out at 2000 nM.
For the molecule `CS(=O)(=O)CS(=O)(=O)NCCc1c(CCOc2ccc(C(=O)O)cc2)c2cc(Cl)ccc2n1C(c1ccccc1)c1ccccc1` [Example 7, 4-(2-(1-Benzhydryl-5-chloro-2-[2-({[(methylsulfonyl)methyl]sulfonyl}amino)ethyl]-1H-indol-3-yl}ethoxy)benzoic acid], the half-inhibitory concentration (IC50) came out at 550 nM.
In the case of `O=C(O)c1ccc(OCCc2c(CCNS(=O)(=O)CCc3cccc4ccccc34)n(C(c3ccccc3)c3ccccc3)c3ccc(Cl)cc23)cc1` [Example 8], the concentration for half-maximal inhibition (IC50) was 2000 nM.
For `O=C(O)c1ccc(OCCc2c(CCNS(=O)(=O)Cc3ccccc3[N+](=O)[O-])n(C(c3ccccc3)c3ccccc3)c3ccc(Cl)cc23)cc1` [Example 9, 4-{2-[1-Benzhydryl-5-chloro-2-(2-[({2-nitrobenzyl}-sulfonyl)amino]ethyl}-1H-indol-3-yl)ethoxy]benzoic acid] the value was 700 nM; for `O=C(O)c1ccc(OCCc2c(CCNS(=O)(=O)Cc3ccc(C(F)(F)F)cc3)n(C(c3ccccc3)c3ccccc3)c3ccc(Cl)cc23)cc1` [Example 13], 640 nM; for `O=C(O)c1ccc(OCCc2c(CCNS(=O)(=O)Cc3ccc(F)cc3)n(C(c3ccccc3)c3ccccc3)c3ccc(Cl)cc23)cc1` [Example 14, 4-{2-[1-Benzhydryl-5-chloro-2-(2-{[(4-fluorobenzyl)sulfonyl]amino}-ethyl)-1H-indol-3-yl]ethoxy}benzoic acid], 800 nM.

Values taken from patent publication US6635771B2, “N-benzhydryl indole compounds” (Wyeth, priority 2001, dated 2003).
